# Experimental data published in publication PMC9138994 (Biomolecules, 2022).
# How the values were obtained:
# human 5-HT7b = target: T1, human 5-HT7b (Homo sapiens, UniProt P34969); assay: Radioligand displacement assay at 5-HT7 ([3H]-5-CT, HEK293 cells); assay type: binding; conditions: HEK293 cells stably expressing h5-HT7, read-out: Ki (n), 5-HT7
# T1 construct: expressed in transfected cells; host or cells: HEK293
# Procedure: HEK293 cells with a stable expression of human 5-HT1A, 5-HT6, 5-HT7b, and D2L (prepared with the use of Lipofectamine 2000), or CHO-K1 cells with plasmids containing the sequence coding for the human serotonin 5-HT2A receptor (PerkinElmer), were maintained at 37 °C in a humidified atmosphere with 5% CO2 and grown in Dulbecco’s Modified Eagle Medium containing 10% dialyzed fetal bovine serum and 500 µg/mL G418 sulfate. For membrane preparation, cells were subcultured in 150 cm^2 flasks, grown to 90% confluence, washed twice with prewarmed to 37 °C phosphate buffered saline (PBS) and pelleted by centrifugation (200× g) in PBS containing 0.1 mM EDTA and 1 mM dithiothreitol. Prior to membrane preparation, the pellets were stored at −80 °C.
# Cell pellets were thawed and homogenized in 10 volumes of assay buffer using an Ultra Turrax tissue homogenizer, and were then centrifuged twice at 35,000× g for 15 min at 4 °C, with incubations for 15 min at 37 °C in between. […] The process of equilibration was terminated by rapid filtration through Unifilter plates with a 96-well cell harvester and the radioactivity retained on the filters was quantified on a Microbeta plate reader (PerkinElmer, Waltham, MA, USA). […] The inhibition constants (Ki) were calculated from the Cheng-Prusoff equation [38]. Results are expressed as means of two separate experiments.
# C57BL/6 mice [1] = assay: Tail suspension test (TST); assay type: in vivo; conditions: for immobility time in TST: acute i.p. pretreatment, ST-2300 10 or 15 mg/kg, PIM 5–15 mg/kg, FLX 10 mg/kg, vs saline controls, C57BL/6 mice, 6 min
# Procedure: (§1) Inbred adult male C57BL/6 mice (aged 10–12 weeks and weighing 20–25 g) were obtained from the animal facility in the College of Medicine and Health Sciences, United Arab Emirates University. The animals were maintained in a separate air-conditioned room with controlled temperature and humidity (24 ± 2 °C and 55 ± 15%, respectively), with a 12 h light/dark cycle, and ad libitum to food and water. All the experiments were performed between 9.00 am and 3.00 pm. The procedures were approved by the Institutional Animal Ethics Committee of College of Medicine and Health Sciences/United Arab Emirates University (Approval No. ERA-2019-6010). To reduce the suffering of the animals, a minimum number of animals were used in this study, whereas the objectives were not compromised.
# (§2) These experiments provide the first behavioral assessment of the ST-2300 in anxiety-like and depression-like behaviors in mice. All doses are expressed in terms of the free base of all test compounds. The drugs used in the current study were dissolved in saline and injected i.p. at a volume of 1 mL/kg. All experimental procedures were conducted in a blinded fashion in which the experimenter was uninformed about the specific treatment groups to which an animal group belonged. Saline, ST-2300 (5, 10, and 15 mg/kg), PIM (5, 10, and 15 mg/kg), FLX (10 mg/kg), RAM (10 mg/kg), and DZP (1 mg/kg) were injected i.p. 30–45 min before the beginning of the behavioral experiments.
# This experimental protocol was followed as previously described, however with slight modifications. Each mouse was suspended on the edge of a rod 50 cm above a table top using adhesive Scotch tape placed approximately 1 cm from the tip of the tail. Tail climbing was prevented by passing the mouse’s tail through a small plastic cylinder prior to suspension, as described by Can et al.. The duration of immobility was manually scored for a 6 min observation period. Mice were considered immobile only when they hung down passively and were completely motionless. The parameter recorded was the number of seconds spent immobile.
# C57BL/6 mice [2] = assay: Open field test (OFT); assay type: in vivo; conditions: for time spent in the center of the arena in OFT (anxiety level) / number of total line crossings in OFT (locomotor activity): i.p. pretreatment, 10 min test session; for time spent in the center of the arena in OFT (anxiety level): ST-2300 10 or 15 mg/kg, PIM 5–15 mg/kg, DZP 1 mg/kg, vs controls; for number of total line crossings in OFT (locomotor activity): ST-2300 or PIM 5–15 mg/kg, C57BL/6 mice
# Procedure: as §1, §2
# To analyze the effect of ST-2300 on locomotion and anxiety behaviors in animals, OFT was carried out. In addition to locomotor activity, the OFT is usually used to measure anxiety-like behaviors in experimental rodents. The test provides a unique opportunity to systematically assess novel environment exploration, general locomotor activity, and provide an initial screen for anxiety-related behavior in experimental rodents. The OF box consisted of a square box (45 × 45 × 30 cm). A 23 × 23 cm area in the center region was defined as the central arena, and the remaining area was defined as periphery area. The mice with a higher degree of anxiety prefer to stay closer to the walls of the box and spend less time in the center, whereas increased time spent in the central area indicates low anxiety level and high exploratory behaviors. The first 5 min of the experiment were considered as habituation, followed by 10 min test session. Total distance moved in the whole arena, time spent in the center, and in the periphery were recorded for 10 min using a charge-coupled, camera-assisted, motion-tracking apparatus and software (EthoVision 3.1, Noldus Information Technology, Wageningen, The Netherlands). After each mouse completed the test, the OF chamber was cleaned thoroughly with 70% (volume/volume; vol/vol) alcohol.
# T1 sequence (P34969 1-432): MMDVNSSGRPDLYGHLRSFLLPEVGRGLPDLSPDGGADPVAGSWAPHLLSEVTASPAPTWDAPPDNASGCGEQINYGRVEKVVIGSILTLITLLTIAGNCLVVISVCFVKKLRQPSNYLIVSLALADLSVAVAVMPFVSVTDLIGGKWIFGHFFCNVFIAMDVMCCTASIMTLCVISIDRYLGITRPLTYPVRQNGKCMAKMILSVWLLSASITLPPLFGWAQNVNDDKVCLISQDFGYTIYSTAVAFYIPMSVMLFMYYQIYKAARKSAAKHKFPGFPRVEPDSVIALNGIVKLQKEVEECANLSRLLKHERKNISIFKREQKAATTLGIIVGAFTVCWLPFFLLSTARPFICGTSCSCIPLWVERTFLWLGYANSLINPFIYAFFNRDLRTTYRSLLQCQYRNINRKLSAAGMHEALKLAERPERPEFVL
Structure (SMILES),Ki (human 5-HT7b) [µM],"immobility time in TST, co-administration of RAM (C57BL/6 mice [1]; ST-2300 10 mg/kg i.p. co-administered with H3R agonist RAM 10 mg/kg i.p., vs ST-2300 alone)",immobility time in TST (C57BL/6 mice [1]),"time spent in the center in OFT, co-administration of RAM (C57BL/6 mice [2]; ST-2300 10 mg/kg i.p. co-administered with RAM 10 mg/kg i.p.)",time spent in the center of the arena in OFT (anxiety level) (C57BL/6 mice [2]),number of total line crossings in OFT (locomotor activity) (C57BL/6 mice [2])
"CN1CCC(N(Cc2ccc(F)cc2)C(=O)NCc2ccc(OCCCN3CCCCC3)cc2)CC1 [ST-2300, 1-(4-Fluorobenzyl)-1-(1-methylpiperidin-4-yl)-3-{4-[3-(piperidin-1-yl)propoxy]benzyl}urea]",> 10,reversed by systemic co-administration with the CNS-penetrant H3R agonist RAM,significantly reduced the immobility time,could not be reversed by co-administration with RAM,dose-dependent increase of time spent in the center of the arena,did not alter the number of total line crossings
"CC(C)COc1ccc(CNC(=O)N(Cc2ccc(F)cc2)C2CCN(C)CC2)cc1 [Pimavanserin, reference compound]",> 10,,failed to affect the overall immobility time,,failed to provide any appreciable effects on the anxiety levels,did not alter the number of total line crossings
